Measurements: PubChem BioAssay AID179 (DTP/NCI, 2004)
pEC50, pIC50: −log10 of the molar value. “And” between values parts separate entries of the source, which are not always exact repeats. Equal values may be shown once. The source made the active and inactive calls.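 How the source made its calls: active means compounds giving half or more protection of infected cells from virus-caused growth loss, again on retest; inactive means the rest.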

Tested on: CEM cells HIV-1 protection, formazan growth assay
Assay: NCI AIDS Antiviral Assay
Conditions: for pIC50: measured here: growth of uninfected CEM cells
Method in brief: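 Steps: treat uninfected and HIV-1-infected human CEM cells at five drug levels; quantify growth by soluble formazan; retest any compound reaching 50% protection; classify actives from the retest.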

Row | Structure (SMILES) | pEC50 | pIC50 | outcome
1 | CN1C(=O)C2C3C=C4c5ccccc5N(c5ccccc5)C4(C2C1=O)[C@H]1C(=O)N(C)C(=O)[C@@H]31 (some centres undefined) | < 4.79 | < 4.79 | 
2 | COc1cc(N=Nc2ccccc2)cc(/C=N/NC(N)=S)c1O |  |  | inactive
3 | O=C1O[C@H]2C3C4CCC(C4[C@@H]2I)[C@H]13 (some centres undefined) | < 3.70 | < 3.70 | 
4 | CCOC(=O)NC(Nc1ccc(OC(F)(F)F)cc1)(C(F)(F)F)C(F)(F)F | < 3.70 | 3.98 | 
5 | O=C1C(c2cnc3ccccc3n2)=C(O)c2ccccc21 | < 5.58 | < 5.58 | 
6 | C#CC(C)(C)OC(=O)C(=[N+]=[N-])C(C)=O | < 3.70 | < 3.70 | 
7 | Cc1ccc(C2SCC(=O)N2NC(=O)c2ccncc2)s1 (centres undefined) | < 3.70 | < 3.70 | 
8 | CCCCCCCCCCCCCCCC(=O)OCC(O)CO (centres undefined) | < 4.80 | < 4.80 | 
9 | CC(O)C1(CNc2cc(Cl)nc(N)n2)CC(CCc2ccccc2)C1 (centres undefined) | < 4.70 | 5.11 | 
10 | CN1C2CCC1CC(O)C2 (centres undefined) | < 2.75 | < 2.75 | 
11 | N=CN=CC(=S)O[C@@H]1C(=O)N2CCC[C@@]23CCCC[C@@H]13 | < 4.60 | < 4.60 | 
12 | CN(C(=O)C12C3C4C1C1C2C3C41C(=O)C(C)(C)C)C(C)(C)C (centres undefined) | < 5.18 | < 5.18 | 
13 | ClC1CCC2OOC1O2 (centres undefined) |  |  | inactive
14 | COC(=O)C1(Cc2ccccc2)Cc2ccccc2C1 | < 3.70 | 4.45 | 
15 | COc1cc(OC)cc(-c2cc(=O)c3c(OC)c(OC)c(OC)c(OC)c3o2)c1 | < 3.70 | 4.57 | 
16 | N.N.N.N.N.[Cl-].[Co+3].c1ccc(-c2nn[n-]n2)cc1 | < 3.16 | < 3.16 | 
17 | COCC1OCCN1C (centres undefined) | < 3.70 | < 3.70 | 
18 | C1CCC(N([P-]P([P-]N(C2CCCCC2)C2CCCCC2)N(C2CCCCC2)C2CCCCC2)C2CCCCC2)CC1.[C-]#[O+].[C-]#[O+].[C-]#[O+].[C-]#[O+].[C-]#[O+].[C-]#[O+].[Fe].[Fe] (centres undefined) | < 6.22 | < 6.22 | 
19 | CC1CC(C)(C)N2CCC(C(=O)N3Cc4cc5ccccc5nc4C3)C2O1 (centres undefined) | < 3.70 | < 3.70 | 
20 | O=C(O)C1CCCN1C(=O)c1cc(Cl)ccn1 (centres undefined) | < 3.70 | < 3.70 | 
21 | COc1cc2ccnc3c2c(c1OC)-c1ccccc1C3=O |  |  | inactive
22 | COc1cc2cnc3c4ccccc4ccc3c2cc1OC | < 4.19 | < 4.19 | 
23 | O=[N+]([O-])c1cc(I)cc(/C=N/NS(=O)(=O)c2ccc(Cl)cc2)c1O | < 3.43 | 4.18 | 

Row | Structure (SMILES) | pEC50 | pIC50 | outcome
24 | CC(=C\c1ccccc1)/C=C1\C(=O)NC(=S)N1C=C1C(=O)NC(=O)NC1=O | < 3.70 | < 3.70 | 
25 | N#CCCN(CCC#N)c1ccc(/C=C(/NC(=O)c2cc([N+](=O)[O-])ccc2Cl)C(=O)NN)cc1 | < 4.97 | < 4.97 | 
26 | CC(=O)c1c2c(cc3c1CC1(Cc4cc5c(cc4C1=O)CCC5)C3)CCC2 (centres undefined) | < 3.70 | 4.87 | 
27 | c1ccc(-c2nc3ccccc3nc2-c2ccccn2)nc1 | < 3.70 | < 3.70 | 
28 | COc1cc(Cl)cc(N(O)C(C)=O)c1OCc1ccccc1 | < 3.25 | 4.23 | 
29 | CN(C)CCC(O)(Cc1ccccc1)c1cccc(Cl)c1 (centres undefined) | < 3.70 | 4.06 | 
30 | CCC(=O)CC(=O)CCC(=O)Nc1cc(C)ccc1C |  |  | inactive
31 | Cc1c(Cl)ccc2c(=O)c3cccc(CC(=O)O)c3oc12 | < 3.70 | 4.10 | 
32 | COC(=O)CSSCC(=O)OC |  |  | inactive
33 | CC(/C=N/Nc1ccc([N+](=O)[O-])cn1)=N/Nc1ccc([N+](=O)[O-])cn1 | < 3.70 | < 3.70 | 
34 | CC1=Nc2ccccc2C12C(c1ccccc1)C(c1ccccc1)C(=O)N1c3ccccc3CC12 (centres undefined) | < 4.10 | < 4.10 | 
35 | COc1cc2c3c(c1)[nH]c(=S)n3C(=O)CCS2 | < 3.70 | < 4.00 | 
36 | COC(=O)/C=C1\SC(OC)(N(C)c2ccccc2)N(C)C1=O (centres undefined) | < 3.81 | 3.84 | 
37 | CCOC(=O)C12OC(CCC1=O)C(C(=O)OC)=C2C(=O)OC (centres undefined) | < 3.70 | < 3.70 | 
38 | c1ccc(-c2nc3nc4ccccc4nc3nc2-c2cccnc2)nc1 | < 5.09 | < 5.09 | 
39 | COc1ccc(C2S/C(=C\c3ccc(O)cc3)C(=O)N2NC(=O)Cc2ccccc2)cc1 (centres undefined) | < 3.95 | < 3.95 | 
40 | Cc1cc(=O)n2c(nc3cc(Cl)ccc32)s1 | < 4.54 | < 4.54 | 
41 | COc1ccccc1N=C1SCC(=O)N1Cc1ccco1 | < 3.87 | 4.05 | 
42 | NC(=O)NNC(O)(C(F)(F)F)C(F)(F)F | < 3.70 | < 3.70 | 
43 | Cc1c(-c2ccccc2)cc(O)c2nc3ccccc3n12 | < 3.70 | 4.71 | 
44 | O=C1CCCCC1C1(O)C(=O)Nc2cc(F)ccc21 (centres undefined) | < 3.02 | 3.75 | 
45 | CC[C@@]12C=CC(=S)N(CCSc3ccccc3)[C@@H]1c1c(n(S(=O)(=O)c3ccc(OC)cc3)c3ccccc13)CC2 | < 3.90 | < 3.90 | 
46 | COc1cc(C(=O)CC2OC(=O)C(Cl)=C2Cl)ccc1Cl (centres undefined) | < 3.13 | 3.84 | 

Row | Structure (SMILES) | pEC50 | pIC50 | outcome
47 | O=C(CC1(O)C(=O)Nc2c(Cl)ccc(Cl)c21)c1ccc(F)cc1 (centres undefined) | < 3.43 | 4.15 | 
48 | c1ccc2c3c([nH]c2c1)C1C2CCCCN2C(c2ccncc2)N1CC3 (centres undefined) | < 4.12 | 4.37 | 
49 | O=C1NC(=O)C2(CC2)N1 | < 3.70 | < 3.70 | 
50 | Cc1cc2n([O-])cccc-2[n+](=O)c1 | < 3.70 | < 3.70 | 
51 | O=C(CCCn1ccnc1[N+](=O)[O-])NCCn1cnc([N+](=O)[O-])c1 | < 3.70 | < 3.70 | 
52 | COc1ccccc1/C=C/c1ccnc2ccccc12 | < 3.70 | 4.49 | 
53 | O=C1c2ccccc2CCCCCCCCCCC12OCCCO2 | < 3.70 | < 3.70 | 
54 | COC1=C(C(c2cc(OC)c(OC)c(OC)c2)c2cc3c(cc2OC)OCO3)C(=O)OC1 (centres undefined) | < 3.70 | 4.98 | 
55 | O=C(O)c1cccc(Nc2c(C(=O)O)cccc2[N+](=O)[O-])c1 | < 3.70 | 5.20 | 
56 | COC1OC2COC1(OCc1ccccc1)C1OC(C)(C)OC21 (centres undefined) | < 3.70 | < 3.70 | 
57 | COP(=O)(OC)/C(=C/c1cn(C(c2ccccc2)(c2ccccc2)c2ccccc2)cn1)NC=O | < 3.70 | < 3.70 | 
58 | CN(C)c1ccc(C2NCCc3c2[nH]c2ccccc32)cc1 (centres undefined) | < 3.70 | 4.60 | 
59 | CC(=O)O[C@H]1[C@H](OC(C)=O)[C@@H](CN=[N+]=[N-])OCO[C@@H]1CN=[N+]=[N-] |  |  | inactive
60 | CC(=O)Nc1ccc(N2C(=O)/C(=C\c3cccc(Oc4ccccc4)c3)S(=O)(=O)C2c2ccccc2)cc1 (centres undefined) | < 3.70 | 4.57 | 
61 | CCCCCCCCCCCCNC(=O)c1ccccc1[Se][Se]c1ccccc1C(=O)NCCCCCCCCCCCC | < 5.45 | < 5.45 | 
62 | CC1=CC(C)(C)NC(=S)N1c1ccccc1O |  |  | inactive
63 | O=C(NCCO)c1ccc[c]([Sb](=[O])([OH])[OH])c1 | 4.63 | 3.40 | 
64 | Cc1n[nH]c(=O)n1-c1cccnc1 | < 3.70 | < 3.70 | 
65 | NS(=O)(=O)c1ccc(CNC(=O)c2ccccc2SC(=O)CCCC[n+]2ccccc2)cc1 | 5.86 and 6.12 | 4.55 and 4.93 | 
66 | Oc1c(-c2ccccc2)nc2cnccn12 | < 3.35 | < 3.35 | 
67 | O=C(NN1CCCCCC1)NS(=O)(=O)c1ccc(Cl)cc1 | < 3.70 | < 3.70 | 
68 | CN(O)C(=O)Cc1ccc(OCc2cccc(Cl)c2)cc1 | < 3.70 | < 3.70 | 
69 | COC(=O)C1CCC(=O)N1C(c1ccc2c(c1)OCO2)c1ccc2c(c1)OCO2 (centres undefined) | < 3.70 | 3.83 | 

Row | Structure (SMILES) | pEC50 | pIC50 | outcome
70 | NC(=O)N/N=C(/c1nc2ccc([N+](=O)[O-])cc2[nH]c1=O)C(O)c1ccco1 (centres undefined) | < 3.74 | < 3.74 | 
71 | Cc1cc2c(c(=O)o1)C(=O)CC(C)O2 (centres undefined) | < 3.11 | 3.93 | 
72 | CCCCCCCCC1=C(OC)C(=O)c2ccc(Cl)nc2C1=O |  |  | inactive
73 | O/N=C1/CCCC/C1=C\c1ccc(Cl)c(Cl)c1 |  |  | inactive
74 | CCc1ccc(Cc2ccc(CC)c(NC(=O)C(=O)C3NC(=S)NC3=O)c2CC)c(CC)c1NC(=O)C(=O)C1NC(=S)NC1=O (centres undefined) | < 4.82 | < 4.82 | 
75 | Cn1ccc(=NS(=O)(=O)c2ccccc2)cc1 |  |  | inactive
76 | COC(=O)c1cc(OC(C)=O)c2c(OC)ccc(OC)c2c1 |  |  | inactive
77 | O=C(NC(Nc1ccc(F)c(Cl)c1)(C(F)(F)F)C(F)(F)F)OCc1ccccc1 | < 3.70 | 4.51 | 
78 | COc1cc(C(O)C2C(=O)OCC2C2(c3ccc4c(c3)OCO4)SCCCS2)cc(OC)c1OC (centres undefined) | < 4.44 | < 4.44 | 
79 | C[C@]12CCC3c4ccc(OC(=O)c5ccccc5)cc4CC[C@H]3C1CC[C@@H]2OC(=O)C12OC1CCC2=O (some centres undefined) | < 3.70 | 5.39 | 
80 | O=C1Cc2c([nH]c3ccc(Cl)cc23)-c2ccccc2N1 | < 3.70 | 4.76 | 
81 | COc1c(C2=NC(C(C)C)CO2)ccc2ccccc12 (centres undefined) | < 3.73 | 4.68 | 
82 | O=C(O)CCCC(=O)Nn1c(Cc2ccc(Cl)cc2)n[nH]c1=O | < 3.70 | < 3.70 | 
83 | Nc1nc(N)nc(NCCSSCCNc2nc(N)nc(N)n2)n1 | < 3.70 | 4.01 | 
84 | OC(C1=C/C(=C\c2ccncc2)c2ccccc21)c1ccncc1 (centres undefined) | < 4.08 | 5.28 | 
85 | Cc1ccc(NC(=O)CC(=O)n2nc(-c3ccccc3)c(N=Nc3ccccc3[N+](=O)[O-])c2-c2ccccc2)cc1 | < 4.60 | < 4.60 | 
86 | COc1cc(Oc2c(O)c(C)c(OC)c(C(C)=O)c2O)c(C(C)=O)c(O)c1C | < 4.03 | < 4.03 | 
87 | Oc1cc2c(cc1O)C1c3ccc(O)c(O)c3OCC1(O)C2 (centres undefined) | < 3.70 | 5.02 | 
88 | COc1ccc(N2C(=O)C3C=CC(n4[nH]c(=O)n(Cc5ccccc5)c4=O)CC3C2=O)cc1 (centres undefined) | < 3.39 | 3.68 | 
89 | COc1ccc(OC)c(N=Nc2cc(OC)c(N=Nc3c(O)c4ccccc4[nH]c3=O)cc2Cc2ccccc2C(=O)O)c1 | < 4.30 | 4.50 | 
90 | NCCCN1CCN(CCCN)CC1 (tested in a mixture with another compound) | < 3.70 | < 3.70 | 
